In publication PMC9186531, “Biochemical and structural characterization of the flavodoxin-like domain of the Schizosaccharomyces japonicus putative tRNA ^Phe 4-demethylwyosine synthase Tyw1 in complex with FMN” (microPublication Biology, 2022):

Biological target: T1, Tyw1 30-251 (Schizosaccharomyces japonicus, UniProt B6K6D6)
T1 construct: flavodoxin-like domain with N-terminal extension, residues 30-251; N-terminal TRX-6His or MBP-6His tag with TEV site, tag cleaved; E. coli KRX; monomer; calculated mass 24940 Da, MS 25010 Da
T1 sequence (B6K6D6 30-251): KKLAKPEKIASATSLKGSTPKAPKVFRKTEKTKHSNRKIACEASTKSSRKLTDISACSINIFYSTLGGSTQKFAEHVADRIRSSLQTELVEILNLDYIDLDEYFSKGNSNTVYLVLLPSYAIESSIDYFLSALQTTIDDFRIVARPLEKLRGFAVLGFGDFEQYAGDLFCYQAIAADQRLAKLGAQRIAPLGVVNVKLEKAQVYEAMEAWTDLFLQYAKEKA
Assay: X-ray crystal structure (molecular replacement, […] A)
Format: binding
Settings: co-purified oxidized FMN; crystals pH 8.5, 288 K; unit occupancy

SMILES: Cc1cc2nc3c(=O)[nH]c(=O)nc-3n(C[C@H](O)[C@H](O)[C@H](O)COP(=O)(O)O)c2cc1C [FMN]
- X-ray crystal structure (molecular replacement, 1.5 A): FMN density was strong and was modeled with unit occupancy in both structures.
